From ChEMBL document CHEMBL4507317, “Data for DCP probe BAY-899” (2021)

Tests used:
[1] = molecular target: Serine/threonine-protein kinase 16 (Homo sapiens) (UniProt O75716); settings: Compound concentration 1000.0 nM
[2] = molecular target: Mu-type opioid receptor (Homo sapiens) (UniProt P35372); settings: Compound concentration 10.0 uM
[3] = molecular target: Death-associated protein kinase 3 (Homo sapiens) (UniProt O43293); settings: Compound concentration 1000.0 nM
[4] = molecular target: Beta-adrenergic receptor kinase 1 (Homo sapiens) (UniProt P25098); settings: Compound concentration 1000.0 nM
[5] = molecular target: Cyclin-dependent kinase-like 1 (Homo sapiens) (UniProt Q00532); settings: Compound concentration 1000.0 nM
[6] = molecular target: Serine/threonine-protein kinase N2 (Homo sapiens) (UniProt Q16513); settings: Compound concentration 1000.0 nM
[7] = molecular target: TRAF2 and NCK-interacting protein kinase (Homo sapiens) (UniProt Q9UKE5); settings: Compound concentration 1000.0 nM
[8] = test system: Serine/threonine-protein kinase B-raf (Homo sapiens), P15056 [V600E]; settings: Compound concentration 1000.0 nM
[9] = molecular target: cAMP-dependent protein kinase catalytic subunit alpha (Homo sapiens) (UniProt P17612); settings: Compound concentration 1000.0 nM
[10] = molecular target: Tyrosine-protein kinase receptor UFO (Homo sapiens) (UniProt P30530); settings: Compound concentration 1000.0 nM
[11] = molecular target: GABA-A receptor; anion channel (Rattus norvegicus) (UniProt O09028+P15431+P18506+P18508+P19969+P20236+P23574+P23576+P28471+P28473+P30191+P62813+P63079+P63138+Q91ZM7+Q9ES14); settings: Compound concentration 10.0 uM
[12] = molecular target: Leukocyte tyrosine kinase receptor (Homo sapiens) (UniProt P29376); settings: Compound concentration 1000.0 nM
[13] = molecular target: Epithelial discoidin domain-containing receptor 1 (Homo sapiens) (UniProt Q08345); settings: Compound concentration 1000.0 nM
[14] = molecular target: Mitogen-activated protein kinase 14 (Homo sapiens) (UniProt Q16539); settings: Compound concentration 1000.0 nM
[15] = molecular target: Serine/threonine-protein kinase TBK1 (Homo sapiens) (UniProt Q9UHD2); settings: Compound concentration 1000.0 nM
[16] = molecular target: Non-receptor tyrosine-protein kinase TYK2 (Homo sapiens) (UniProt P29597); settings: Compound concentration 1000.0 nM
[17] = molecular target: Dual specificity mitogen-activated protein kinase kinase 1 (Homo sapiens) (UniProt Q02750); settings: Compound concentration 1000.0 nM
[18] = molecular target: Aurora kinase B (Homo sapiens) (UniProt Q96GD4); settings: Compound concentration 1000.0 nM
[19] = molecular target: Calcium/calmodulin-dependent protein kinase type IV (Homo sapiens) (UniProt Q16566); settings: Compound concentration 1000.0 nM
[20] = molecular target: Epidermal growth factor receptor (Homo sapiens) (UniProt P00533); settings: Compound concentration 1000.0 nM
[21] = molecular target: Serine/threonine-protein kinase PAK 6 (Homo sapiens) (UniProt Q9NQU5); settings: Compound concentration 1000.0 nM
[22] = molecular target: Cyclin-G-associated kinase (Homo sapiens) (UniProt O14976); settings: Compound concentration 1000.0 nM
[23] = molecular target: Activin receptor type-2B (Homo sapiens) (UniProt Q13705); settings: Compound concentration 1000.0 nM
[24] = molecular target: Uncharacterized serine/threonine-protein kinase SBK3 (Homo sapiens) (UniProt P0C264); settings: Compound concentration 1000.0 nM
[25] = molecular target: Protein-tyrosine kinase 2-beta (Homo sapiens) (UniProt Q14289); settings: Compound concentration 1000.0 nM
[26] = molecular target: Bone morphogenetic protein receptor type-1B (Homo sapiens) (UniProt O00238); settings: Compound concentration 1000.0 nM
[27] = molecular target: Serine/threonine-protein kinase 17A (Homo sapiens) (UniProt Q9UEE5); settings: Compound concentration 1000.0 nM
[28] = molecular target: Casein kinase I isoform gamma-1 (Homo sapiens) (UniProt Q9HCP0); settings: Compound concentration 1000.0 nM
[29] = molecular target: Non-receptor tyrosine-protein kinase TNK1 (Homo sapiens) (UniProt Q13470); settings: Compound concentration 1000.0 nM
[30] = molecular target: Casein kinase I isoform gamma-2 (Homo sapiens) (UniProt P78368); settings: Compound concentration 1000.0 nM
[31] = molecular target: Serine/threonine-protein kinase 32A (Homo sapiens) (UniProt Q8WU08); settings: Compound concentration 1000.0 nM
[32] = molecular target: Ribosomal protein S6 kinase alpha-4 (Homo sapiens) (UniProt O75676); settings: Compound concentration 1000.0 nM
[33] = molecular target: MAP kinase-interacting serine/threonine-protein kinase 2 (Homo sapiens) (UniProt Q9HBH9); settings: Compound concentration 1000.0 nM
[34] = test system: Tyrosine-protein kinase ABL1 (Homo sapiens), P00519 [T315I]; settings: Compound concentration 1000.0 nM
[35] = molecular target: LIM domain kinase 1 (Homo sapiens) (UniProt P53667); settings: Compound concentration 1000.0 nM
[36] = test system: Tyrosine-protein kinase ABL1 (Homo sapiens), P00519 [Q252H]; settings: Compound concentration 1000.0 nM
[37] = molecular target: Casein kinase I isoform epsilon (Homo sapiens) (UniProt P49674); settings: Compound concentration 1000.0 nM
[38] = molecular target: Cyclin-dependent kinase 11A (Homo sapiens) (UniProt Q9UQ88); settings: Compound concentration 1000.0 nM
[39] = test system: ALK tyrosine kinase receptor (Homo sapiens), Q9UM73 [C1156Y]; settings: Compound concentration 1000.0 nM
[40] = molecular target: AP2-associated protein kinase 1 (Homo sapiens) (UniProt Q2M2I8); settings: Compound concentration 1000.0 nM
[41] = molecular target: Serine/threonine-protein kinase PLK1 (Homo sapiens) (UniProt P53350); settings: Compound concentration 1000.0 nM
[42] = molecular target: High affinity nerve growth factor receptor (Homo sapiens) (UniProt P04629); settings: Compound concentration 1000.0 nM
[43] = molecular target: Mitogen-activated protein kinase kinase kinase 20 (Homo sapiens) (UniProt Q9NYL2); settings: Compound concentration 1000.0 nM
[44] = molecular target: Beta-2 adrenergic receptor (Homo sapiens) (UniProt P07550); settings: Compound concentration 10.0 uM

Sequence of Serine/threonine-protein kinase PAK 6 (Homo sapiens) (Q9NQU5 whole entry, looked up): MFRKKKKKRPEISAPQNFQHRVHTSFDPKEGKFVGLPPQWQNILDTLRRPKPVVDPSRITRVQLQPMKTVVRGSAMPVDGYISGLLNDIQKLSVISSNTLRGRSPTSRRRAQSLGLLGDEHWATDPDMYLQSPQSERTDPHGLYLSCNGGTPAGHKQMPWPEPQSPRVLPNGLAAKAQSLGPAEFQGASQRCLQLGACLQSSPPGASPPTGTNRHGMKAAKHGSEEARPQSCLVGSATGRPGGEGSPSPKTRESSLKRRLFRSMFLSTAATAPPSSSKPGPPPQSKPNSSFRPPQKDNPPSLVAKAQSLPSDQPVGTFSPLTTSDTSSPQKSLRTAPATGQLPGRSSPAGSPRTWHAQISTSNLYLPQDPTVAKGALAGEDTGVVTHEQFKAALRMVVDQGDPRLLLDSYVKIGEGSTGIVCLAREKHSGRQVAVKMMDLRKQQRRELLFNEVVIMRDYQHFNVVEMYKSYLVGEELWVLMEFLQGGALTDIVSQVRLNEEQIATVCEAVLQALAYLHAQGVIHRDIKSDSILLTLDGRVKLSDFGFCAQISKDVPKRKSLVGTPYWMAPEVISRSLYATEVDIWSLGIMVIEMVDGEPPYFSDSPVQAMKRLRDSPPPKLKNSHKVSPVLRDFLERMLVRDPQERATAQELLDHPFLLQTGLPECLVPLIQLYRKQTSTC
Sequence of Mu-type opioid receptor (Homo sapiens) (P35372 whole entry): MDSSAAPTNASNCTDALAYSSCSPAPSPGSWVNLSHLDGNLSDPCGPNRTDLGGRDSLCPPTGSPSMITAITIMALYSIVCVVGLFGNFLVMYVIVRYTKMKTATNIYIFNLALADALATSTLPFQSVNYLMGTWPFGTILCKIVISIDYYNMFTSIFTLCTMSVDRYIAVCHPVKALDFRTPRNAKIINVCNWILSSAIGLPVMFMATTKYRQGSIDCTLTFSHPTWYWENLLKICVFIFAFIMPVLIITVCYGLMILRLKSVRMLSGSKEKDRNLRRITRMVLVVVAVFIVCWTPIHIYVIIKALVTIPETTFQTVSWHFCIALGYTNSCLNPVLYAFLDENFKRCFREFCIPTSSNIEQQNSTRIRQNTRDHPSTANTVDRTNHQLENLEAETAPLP
Sequence of Mitogen-activated protein kinase kinase kinase 20 (Homo sapiens) (Q9NYL2 2-800 limits assumed): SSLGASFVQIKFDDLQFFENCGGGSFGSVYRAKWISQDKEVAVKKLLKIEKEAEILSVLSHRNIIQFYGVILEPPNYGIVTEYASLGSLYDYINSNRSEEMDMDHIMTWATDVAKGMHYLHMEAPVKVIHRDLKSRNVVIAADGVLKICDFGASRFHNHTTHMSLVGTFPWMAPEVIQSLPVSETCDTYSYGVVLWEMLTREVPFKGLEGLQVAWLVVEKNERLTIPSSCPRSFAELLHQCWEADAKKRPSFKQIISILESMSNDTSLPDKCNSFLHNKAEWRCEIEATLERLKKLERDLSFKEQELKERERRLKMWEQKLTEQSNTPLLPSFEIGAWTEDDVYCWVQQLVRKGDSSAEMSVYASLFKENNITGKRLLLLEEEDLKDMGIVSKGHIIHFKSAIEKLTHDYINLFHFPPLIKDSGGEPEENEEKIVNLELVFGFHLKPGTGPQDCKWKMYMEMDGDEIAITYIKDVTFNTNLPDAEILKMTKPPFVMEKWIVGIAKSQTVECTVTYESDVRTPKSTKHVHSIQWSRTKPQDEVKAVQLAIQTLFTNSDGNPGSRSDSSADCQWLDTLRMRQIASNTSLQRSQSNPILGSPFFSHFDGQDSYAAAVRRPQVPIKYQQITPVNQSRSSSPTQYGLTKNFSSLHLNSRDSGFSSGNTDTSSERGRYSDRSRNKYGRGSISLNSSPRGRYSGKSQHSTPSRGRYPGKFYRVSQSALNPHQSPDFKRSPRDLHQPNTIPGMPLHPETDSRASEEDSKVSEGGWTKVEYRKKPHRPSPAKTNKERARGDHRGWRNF
Sequence of Non-receptor tyrosine-protein kinase TNK1 (Homo sapiens) (Q13470 whole entry, canonical isoform): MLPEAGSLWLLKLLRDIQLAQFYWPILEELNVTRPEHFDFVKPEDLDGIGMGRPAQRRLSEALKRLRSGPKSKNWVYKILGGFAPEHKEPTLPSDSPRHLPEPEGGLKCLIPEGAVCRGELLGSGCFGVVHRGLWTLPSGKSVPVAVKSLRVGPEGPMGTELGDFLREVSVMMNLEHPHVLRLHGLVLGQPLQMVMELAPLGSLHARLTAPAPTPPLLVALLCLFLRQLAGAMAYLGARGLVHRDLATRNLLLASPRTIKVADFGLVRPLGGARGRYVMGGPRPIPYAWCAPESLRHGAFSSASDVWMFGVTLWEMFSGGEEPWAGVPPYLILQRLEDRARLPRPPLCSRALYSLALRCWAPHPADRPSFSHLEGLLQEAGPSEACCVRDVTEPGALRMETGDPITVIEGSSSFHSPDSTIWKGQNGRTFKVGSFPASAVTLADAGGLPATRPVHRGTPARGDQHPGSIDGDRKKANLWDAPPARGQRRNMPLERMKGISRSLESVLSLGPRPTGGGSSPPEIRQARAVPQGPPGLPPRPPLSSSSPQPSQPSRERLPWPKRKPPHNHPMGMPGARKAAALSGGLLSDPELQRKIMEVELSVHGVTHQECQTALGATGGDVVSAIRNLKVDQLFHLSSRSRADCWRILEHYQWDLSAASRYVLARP
Sequence of Cyclin-G-associated kinase (Homo sapiens) (O14976 whole entry): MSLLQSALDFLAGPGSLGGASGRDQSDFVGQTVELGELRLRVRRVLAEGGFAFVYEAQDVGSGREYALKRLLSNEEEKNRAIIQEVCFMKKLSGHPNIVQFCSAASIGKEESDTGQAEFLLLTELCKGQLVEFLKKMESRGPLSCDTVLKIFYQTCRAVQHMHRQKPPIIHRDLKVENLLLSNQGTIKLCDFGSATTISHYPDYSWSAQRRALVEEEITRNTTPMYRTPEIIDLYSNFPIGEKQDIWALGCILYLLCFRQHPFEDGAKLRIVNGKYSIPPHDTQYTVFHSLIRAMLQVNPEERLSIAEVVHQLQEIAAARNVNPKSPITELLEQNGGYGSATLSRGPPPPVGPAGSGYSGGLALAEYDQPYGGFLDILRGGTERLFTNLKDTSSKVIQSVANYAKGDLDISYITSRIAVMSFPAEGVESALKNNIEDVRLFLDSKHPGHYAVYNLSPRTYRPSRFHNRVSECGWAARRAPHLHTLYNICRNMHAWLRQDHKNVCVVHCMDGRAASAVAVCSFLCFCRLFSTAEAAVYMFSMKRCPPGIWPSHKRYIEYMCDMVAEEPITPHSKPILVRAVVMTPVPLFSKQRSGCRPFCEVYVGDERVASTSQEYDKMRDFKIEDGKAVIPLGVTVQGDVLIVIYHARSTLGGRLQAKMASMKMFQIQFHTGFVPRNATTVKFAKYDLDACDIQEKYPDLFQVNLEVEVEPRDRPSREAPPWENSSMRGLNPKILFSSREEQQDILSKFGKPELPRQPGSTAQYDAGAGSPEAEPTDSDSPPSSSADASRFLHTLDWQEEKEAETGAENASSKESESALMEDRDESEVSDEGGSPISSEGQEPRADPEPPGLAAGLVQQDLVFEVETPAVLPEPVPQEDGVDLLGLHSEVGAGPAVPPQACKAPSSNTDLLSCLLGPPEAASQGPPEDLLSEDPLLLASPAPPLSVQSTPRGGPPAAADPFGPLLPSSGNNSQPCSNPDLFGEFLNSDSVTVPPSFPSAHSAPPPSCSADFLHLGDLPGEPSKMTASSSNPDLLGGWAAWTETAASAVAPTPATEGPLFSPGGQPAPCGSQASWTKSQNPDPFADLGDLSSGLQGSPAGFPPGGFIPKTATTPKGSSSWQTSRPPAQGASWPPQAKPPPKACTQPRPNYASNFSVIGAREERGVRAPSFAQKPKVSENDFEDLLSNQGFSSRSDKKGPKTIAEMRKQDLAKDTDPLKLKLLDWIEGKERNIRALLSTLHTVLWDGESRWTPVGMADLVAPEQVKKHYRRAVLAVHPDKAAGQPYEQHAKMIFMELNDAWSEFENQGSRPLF
Sequence of LIM domain kinase 1 (Homo sapiens) (P53667 whole entry, looked up, the tested form may be a part): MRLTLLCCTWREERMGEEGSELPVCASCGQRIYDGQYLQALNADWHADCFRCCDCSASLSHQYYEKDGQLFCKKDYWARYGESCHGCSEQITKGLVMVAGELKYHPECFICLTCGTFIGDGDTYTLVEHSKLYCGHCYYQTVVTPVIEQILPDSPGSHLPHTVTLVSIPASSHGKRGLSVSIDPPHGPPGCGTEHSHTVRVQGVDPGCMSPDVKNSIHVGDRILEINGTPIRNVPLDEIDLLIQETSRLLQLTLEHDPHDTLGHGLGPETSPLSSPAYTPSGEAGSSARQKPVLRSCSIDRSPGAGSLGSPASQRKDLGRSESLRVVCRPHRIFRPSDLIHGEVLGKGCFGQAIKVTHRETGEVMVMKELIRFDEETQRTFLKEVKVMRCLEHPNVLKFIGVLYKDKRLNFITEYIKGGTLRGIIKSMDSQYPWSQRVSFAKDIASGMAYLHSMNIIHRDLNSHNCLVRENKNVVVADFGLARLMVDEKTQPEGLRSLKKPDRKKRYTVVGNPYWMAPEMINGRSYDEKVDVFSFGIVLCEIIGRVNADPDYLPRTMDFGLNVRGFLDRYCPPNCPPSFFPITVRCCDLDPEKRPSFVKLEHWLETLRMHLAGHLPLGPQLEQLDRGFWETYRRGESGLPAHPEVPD
Sequence of Bone morphogenetic protein receptor type-1B (Homo sapiens) (O00238 whole entry): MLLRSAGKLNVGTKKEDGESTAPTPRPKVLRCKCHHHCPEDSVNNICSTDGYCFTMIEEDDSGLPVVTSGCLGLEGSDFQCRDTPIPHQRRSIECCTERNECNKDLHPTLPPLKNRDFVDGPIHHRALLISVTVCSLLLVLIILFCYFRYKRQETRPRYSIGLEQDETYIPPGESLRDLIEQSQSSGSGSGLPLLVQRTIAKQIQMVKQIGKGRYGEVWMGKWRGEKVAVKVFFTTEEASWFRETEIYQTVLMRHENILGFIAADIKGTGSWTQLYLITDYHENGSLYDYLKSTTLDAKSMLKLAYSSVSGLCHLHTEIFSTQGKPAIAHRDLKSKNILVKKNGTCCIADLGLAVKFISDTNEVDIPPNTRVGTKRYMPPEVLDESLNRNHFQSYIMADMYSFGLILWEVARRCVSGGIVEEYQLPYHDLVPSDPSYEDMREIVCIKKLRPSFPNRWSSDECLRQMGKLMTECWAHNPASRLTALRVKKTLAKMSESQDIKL

O=C(Nc1ccc(Oc2ccc(F)cc2)cc1)N1CCc2ncccc2[C@H]1c1ccc(F)cc1 [BAY-897]
inactive: residual activity [1] 100% | inhibition [2] 37.1% | residual activity [3] 100% | residual activity [4] 92% | residual activity [5] 97% | residual activity [6] 80% | residual activity [7] 100% | residual activity [8] 93% | residual activity [9] 95% | residual activity [10] 77% | inhibition [11] 26.9% | residual activity [12] 86% | residual activity [13] 100% | residual activity [14] 100% | residual activity [15] 81% | residual activity [16] 95% | residual activity [17] 98% | residual activity [18] 89% | residual activity [19] 86% | residual activity [20] 100% | residual activity [21] 100% | residual activity [22] 89% | residual activity [23] 100% | residual activity [24] 70% | residual activity [25] 89% | residual activity [26] 87% | residual activity [27] 86% | residual activity [28] 90% | residual activity [29] 96% | residual activity [30] 98% | residual activity [31] 100% | residual activity [32] 94% | residual activity [33] 91% | residual activity [34] 85% | residual activity [35] 85% | residual activity [36] 90% | residual activity [37] 85% | residual activity [38] 92% | residual activity [39] 93% | residual activity [40] 95% | residual activity [41] 78% | residual activity [42] 85% | residual activity [43] 100% | inhibition [44] 25.6%

O=C(Nc1cnc(Oc2ccc(F)cc2)nc1)N1CCc2ncccc2[C@@H]1c1ccc(F)cc1 [BAY-899]
inactive: residual activity [1] 100% | inhibition [2] 28.1% | residual activity [3] 100% | residual activity [4] 90% | residual activity [5] 100% | residual activity [6] 78% | residual activity [7] 100% | residual activity [8] 83% | residual activity [9] 82% | residual activity [10] 76% | inhibition [11] 19.4% | residual activity [12] 93% | residual activity [13] 95% | residual activity [14] 79% | residual activity [15] 87% | residual activity [16] 97% | residual activity [17] 93% | residual activity [18] 80% | residual activity [19] 97% | residual activity [20] 100% | residual activity [21] 100% | residual activity [22] 94% | residual activity [23] 85% | residual activity [24] 90% | residual activity [25] 100% | residual activity [26] 98% | residual activity [27] 85% | residual activity [28] 99% | residual activity [29] 97% | residual activity [30] 96% | residual activity [31] 100% | residual activity [32] 91% | residual activity [33] 94% | residual activity [34] 77% | residual activity [35] 99% | residual activity [36] 91% | residual activity [37] 66% | residual activity [38] 91% | residual activity [39] 90% | residual activity [40] 91% | residual activity [41] 80% | residual activity [42] 100% | residual activity [43] 100% | inhibition [44] 25.3%
